Results: PubChem BioAssay (NCI)
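All cell lines were grown in 96-well plates and treated with compound for 48 hours. TGI: total growth inhibition.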

Experiments:
Experiment in all cases: NCI-60 cell line screen, 48 h
786-0 renal = system: 786-0 renal
A498 renal = system: A498 renal
A549 NSCLC = system: A549 NSCLC
ACHN renal = system: ACHN renal
CAKI-1 renal = system: CAKI-1 renal
DLD-1 colon = system: DLD-1 colon
DMS 114 small cell lung = system: DMS 114 small cell lung
EKVX NSCLC = system: EKVX NSCLC
HCC-2998 colon = system: HCC-2998 colon
HCT-116 colon = system: HCT-116 colon
HOP-62 NSCLC = system: HOP-62 NSCLC
HOP-92 NSCLC = system: HOP-92 NSCLC
HT29 colon = system: HT29 colon
IGROV1 ovarian = system: IGROV1 ovarian
KM12 colon = system: KM12 colon
KM20L2 colon = system: KM20L2 colon
LOX IMVI melanoma = system: LOX IMVI melanoma
LXFL 529 NSCLC = system: LXFL 529 NSCLC
M14 melanoma = system: M14 melanoma
M19-MEL melanoma = system: M19-MEL melanoma
MALME-3M melanoma = system: MALME-3M melanoma
MOLT-4 leukemia = system: MOLT-4 leukemia
NCI-H226 lung = system: NCI-H226 lung
NCI-H23 lung = system: NCI-H23 lung
NCI-H460 lung = system: NCI-H460 lung
OVCAR-3 ovarian = system: OVCAR-3 ovarian
OVCAR-4 ovarian = system: OVCAR-4 ovarian
OVCAR-5 ovarian = system: OVCAR-5 ovarian
OVCAR-8 ovarian = system: OVCAR-8 ovarian
RPMI-8226 leukemia = system: RPMI-8226 leukemia
RXF 393 renal = system: RXF 393 renal
SF-268 CNS = system: SF-268 CNS
SF-295 CNS = system: SF-295 CNS
SF-539 CNS = system: SF-539 CNS
SK-MEL-28 melanoma = system: SK-MEL-28 melanoma
SK-MEL-5 melanoma = system: SK-MEL-5 melanoma
SK-OV-3 ovarian = system: SK-OV-3 ovarian
SN12C renal = system: SN12C renal
SNB-19 CNS = system: SNB-19 CNS
SNB-75 CNS = system: SNB-75 CNS
SNB-78 CNS = system: SNB-78 CNS
SR leukemia = system: SR leukemia
SW-620 colon = system: SW-620 colon
TK-10 renal = system: TK-10 renal
U251 CNS = system: U251 CNS
UACC-257 melanoma = system: UACC-257 melanoma
UACC-62 melanoma = system: UACC-62 melanoma
UO-31 renal = system: UO-31 renal
XF 498 CNS = system: XF 498 CNS
CCRF-CEM leukemia = system: CCRF-CEM leukemia
COLO 205 colon = system: COLO 205 colon
DMS 273 small cell lung = system: DMS 273 small cell lung
HCT-15 colon = system: HCT-15 colon
HL-60(TB) leukemia = system: HL-60(TB) leukemia
HOP-18 NSCLC = system: HOP-18 NSCLC
K-562 leukemia = system: K-562 leukemia
NCI-H522 lung = system: NCI-H522 lung
SK-MEL-2 melanoma = system: SK-MEL-2 melanoma

Measured: TGI

COc1cccc(NC(=O)CC(=O)N2NC(c3ccccc3)C(N=Nc3cccc(C(=O)O)c3)C2=O)c1 (stereo not given)
> 100 µM: 786-0 renal | A498 renal | A549 NSCLC | ACHN renal | CAKI-1 renal | DLD-1 colon | DMS 114 small cell lung | EKVX NSCLC | HCC-2998 colon | HCT-116 colon | HOP-62 NSCLC | HOP-92 NSCLC | HT29 colon | IGROV1 ovarian | KM12 colon | KM20L2 colon | LOX IMVI melanoma | LXFL 529 NSCLC | M14 melanoma | M19-MEL melanoma | MALME-3M melanoma | MOLT-4 leukemia | NCI-H226 lung | NCI-H23 lung | NCI-H460 lung | OVCAR-3 ovarian | OVCAR-4 ovarian | OVCAR-5 ovarian | OVCAR-8 ovarian | RPMI-8226 leukemia | RXF 393 renal | SF-268 CNS | SF-295 CNS | SF-539 CNS | SK-MEL-28 melanoma | SK-MEL-5 melanoma | SK-OV-3 ovarian | SN12C renal | SNB-19 CNS | SNB-75 CNS | SNB-78 CNS | SR leukemia | SW-620 colon | TK-10 renal | U251 CNS | UACC-257 melanoma | UACC-62 melanoma | UO-31 renal | XF 498 CNS

NC(N)=C1CN(C2CCCCC2)C(=O)NC1=O
> 100 µM: 786-0 renal | A498 renal | A549 NSCLC | ACHN renal | CAKI-1 renal | CCRF-CEM leukemia | COLO 205 colon | DLD-1 colon | DMS 114 small cell lung | DMS 273 small cell lung | HCC-2998 colon | HCT-116 colon | HCT-15 colon | HL-60(TB) leukemia | HOP-18 NSCLC | HOP-62 NSCLC | HOP-92 NSCLC | HT29 colon | IGROV1 ovarian | K-562 leukemia | KM12 colon | KM20L2 colon | LOX IMVI melanoma | LXFL 529 NSCLC | M14 melanoma | M19-MEL melanoma | MALME-3M melanoma | MOLT-4 leukemia | NCI-H226 lung | NCI-H23 lung | NCI-H460 lung | NCI-H522 lung | OVCAR-3 ovarian | OVCAR-4 ovarian | OVCAR-5 ovarian | OVCAR-8 ovarian | RPMI-8226 leukemia | RXF 393 renal | SF-268 CNS | SF-295 CNS | SF-539 CNS | SK-MEL-2 melanoma | SK-MEL-28 melanoma | SK-MEL-5 melanoma | SK-OV-3 ovarian | SN12C renal | SNB-19 CNS | SNB-75 CNS | SNB-78 CNS | SR leukemia | SW-620 colon | TK-10 renal | U251 CNS | UACC-257 melanoma | UACC-62 melanoma | UO-31 renal

CCCNC(=O)C(C)(Cl)C(=O)c1ccccc1O (stereo not given)
> 100 µM: 786-0 renal | A498 renal | A549 NSCLC | ACHN renal | CAKI-1 renal | CCRF-CEM leukemia | COLO 205 colon | DLD-1 colon | DMS 114 small cell lung | DMS 273 small cell lung | HCC-2998 colon | HCT-116 colon | HCT-15 colon | HL-60(TB) leukemia | HOP-18 NSCLC | HOP-62 NSCLC | IGROV1 ovarian | K-562 leukemia | KM12 colon | KM20L2 colon | LXFL 529 NSCLC | M14 melanoma | M19-MEL melanoma | MALME-3M melanoma | MOLT-4 leukemia | NCI-H226 lung | NCI-H460 lung | NCI-H522 lung | OVCAR-3 ovarian | OVCAR-4 ovarian | OVCAR-8 ovarian | RPMI-8226 leukemia | RXF 393 renal | SF-268 CNS | SF-539 CNS | SK-MEL-2 melanoma | SK-MEL-28 melanoma | SK-MEL-5 melanoma | SK-OV-3 ovarian | SN12C renal | SNB-19 CNS | SNB-75 CNS | SNB-78 CNS | SR leukemia | SW-620 colon | TK-10 renal | U251 CNS | UACC-257 melanoma | UACC-62 melanoma | UO-31 renal
